System: ATF3
Assay: Western blot analysis of ATF3 in SK-Hep1 cells grown on Met and Met sulfoxide media
Assay type: cell-based, human
Details: 72 hours, compared with cells on Met or Met-SO
Protocol: Analysis of SK-Hep1 and fRMsr-transfected SK-Hep1 cells—SK-Hep1 and fRMsr-transfected SK-Hep1 cells were plated in 6-well plates at 7.5×10^4 cells/well in regular DMEM medium. The medium was changed to Met-free DMEM supplemented with either Met or individual Met sulfoxides at 24 hours after plating. Cells were then collected every 24 hours until 96 hours. Protein concentration was measured by the Bradford assay and the samples were probed by standard immunoblot assays with polyclonal MsrA (kindly provided by Bertrand Friguet), cystathionine beta synthase (CBS) (kindly provided by Ruma Banerjee), and activating transcription factor 3 (ATF3) (Santa Cruz Biotechnology) antibodies.

## C[S@@+]([O-])CC[C@H](N)C(=O)O [Met-RO, methionine-R-sulfoxide]
  Expression levels of ATF3: low expression levels of ATF3
